Results reported in patent US11312758B2, “Peptides with vasodilatory and/or diuretic functions” (National University of Singapore, priority 2016, dated 2022).
Where “and” joins values, the source holds several entries; their conditions need not be identical. Identical values can stand only once. Positions of bridges follow the written chain, without caps; N, C: chain ends. Residues, ends and D or L forms follow the SMILES beside them.

How the values were obtained:
[1] = tested on: anesthetized male SD rats; assay: In-vivo activity assay: peptide infusion in anesthetized rats (MAP, HR, PP, urine flow); design: species or system rat
Method: Male Sprague-Dawley (SD) rats (220-280 g) were obtained from Invivos, Singapore. Animals were acclimatized in the Animal Holding unit, NUS for 3 days before the experiment. The experiments were conducted under the guidance and approval of Institutional Animal Care and Use Committee, NUS (041/12).
The experiments were performed as described in Sridharan et al., [Biochem J 469 (2): 255-66 (2015)]. In brief, animals were anesthetized with sodium pentobarbital (60-70 mg/kg) and catheters were inserted in femoral artery, vein and urinary bladder. The body temperature of the animals was maintained using a thermostatic heat pad at 37° C. Continuous infusions (2 ml/h) of 0.2% BSA saline (with or without peptide) was administered through the femoral vein while a pressure transducer attached to the femoral artery recorded on-line changes in mean arterial pressure (MAP), heart rate (HR) and pulse pressure (PP). Urine was collected and the volume was measured after every 10 min. Experiments encompassed control (2×10 min), experimental (1×10 min) and recovery (4×10 min) periods. All animals were euthanized at the end of the experiment in carbon-di-oxide chambers.

rat NPR-A [2] = target: T1, rat NPR-A (Rattus norvegicus, UniProt P18910); assay: Whole cell cGMP assay, 30 min end-point dose-response in CHO-K1 cells transiently expressing NPR-A; assay type: cell-based; conditions: for fold drop in activity compared to ANP: cGMP response; for NPR-A activation potency, Ratio compared wild type NPs: negative = more potent than wild type
T1 construct: expressed in transfected cells; host or cells: CHO-K1
T1 sequence (P18910 29-1057): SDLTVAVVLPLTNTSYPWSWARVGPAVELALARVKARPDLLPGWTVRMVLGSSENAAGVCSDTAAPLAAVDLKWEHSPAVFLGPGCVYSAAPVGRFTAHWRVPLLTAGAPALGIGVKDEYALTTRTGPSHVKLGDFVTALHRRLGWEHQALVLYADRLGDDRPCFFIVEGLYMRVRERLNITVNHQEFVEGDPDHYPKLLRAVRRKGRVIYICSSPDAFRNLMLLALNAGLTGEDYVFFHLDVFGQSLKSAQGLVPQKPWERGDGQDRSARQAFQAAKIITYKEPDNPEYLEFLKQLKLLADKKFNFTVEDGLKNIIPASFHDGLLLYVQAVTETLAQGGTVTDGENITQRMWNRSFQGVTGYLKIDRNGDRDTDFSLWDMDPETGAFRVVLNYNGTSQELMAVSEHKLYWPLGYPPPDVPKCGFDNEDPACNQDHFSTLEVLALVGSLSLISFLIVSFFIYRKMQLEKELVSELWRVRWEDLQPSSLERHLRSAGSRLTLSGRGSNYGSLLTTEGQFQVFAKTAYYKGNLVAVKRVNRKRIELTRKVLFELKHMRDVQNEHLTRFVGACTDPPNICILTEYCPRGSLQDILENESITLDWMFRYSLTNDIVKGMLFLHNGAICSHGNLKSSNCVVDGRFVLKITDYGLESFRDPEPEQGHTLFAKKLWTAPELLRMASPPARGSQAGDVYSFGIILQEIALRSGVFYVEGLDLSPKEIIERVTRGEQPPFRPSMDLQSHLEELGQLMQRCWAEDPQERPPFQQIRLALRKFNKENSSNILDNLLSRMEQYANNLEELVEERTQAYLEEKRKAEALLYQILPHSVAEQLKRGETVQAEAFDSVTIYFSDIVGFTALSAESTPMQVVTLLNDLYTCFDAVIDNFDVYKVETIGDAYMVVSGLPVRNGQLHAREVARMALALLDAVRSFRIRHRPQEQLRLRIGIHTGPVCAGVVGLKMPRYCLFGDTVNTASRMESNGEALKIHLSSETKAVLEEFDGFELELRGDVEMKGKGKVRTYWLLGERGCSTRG
Method: (§1) The experiments were performed as described in Sridharan et al., [Biochem J 469 (2): 255-66 (2015)]. Dulbecco's modified Eagle's medium supplemented with 10% fetal bovine serum, 100 U/ml penicillin and 100 μg/ml streptomycin and 2 mM glutamine was used to grow CHO-K1 cells in a humidified incubator at 37° C. with 5% CO2. The cells were maintained by sub-culturing using 0.5% trypsin every three days. Cells (1×10^5) were seeded per well in 24-well plate and grown for 16 h. Cells in each well were transfected with 0.8 μg of plasmid encoding rat NPR-A using 2 μl of Lipofectamine™ 2000 transfection reagent. Cells were treated with the peptides 24 h after transfection.
NPR-A transfected CHO-K1 cells were treated with varying concentrations of peptides (10 nM to 10 μM dissolved in basal media containing 0.5 mM IBMX) for 30 min. The end-point accumulation of cGMP was measured after cell-lysis with 200 μl of 0.1 N HCl using Enzo life sciences cGMP ELISA kit (manufacturer's protocol).

rat NPR-A [3] = target: T1, rat NPR-A; assay: Time-chase study of cGMP accumulation (NPR-A activation kinetics) at EC50 concentration of peptide; assay type: cell-based; conditions: for Rate of generation of cGMP / time of peak / maximum accumulation of cGMP: EC50 concentration of peptide
Method: as §1
Time-chase study was performed by treating the cells with EC50 concentration of the peptides. The reactions were terminated at the indicated time-points (0, 2, 5, 10, 20 and 30 min) by treating the cells with 0.1 N HCl. The cGMP concentration in the cell lysate was measured using cGMP ELISA kit (Enzo life sciences).

[4] = 2.0 nmol/kg/min infusion, listed as DRDAND
[5] = equimolar infusion (2 nmol/kg/min)

| SMILES | Heart rate Peak time ([1]; 0.2 nmol/kg/min infusion) [min] | Mean arterial pressure Peak response ([1]; 0.2 nmol/kg/min infusion) | Mean arterial pressure Peak time ([1]; 0.2 nmol/kg/min infusion) [min] | Pulse pressure Peak time ([1]; 0.2 nmol/kg/min infusion) [min] | Urine flow rate Peak response ([1]; 0.2 nmol/kg/min infusion) [µL/min] | HR Rate of change per unit change in MAP ([1]; 2 nmol/kg/min infusion) | PP Rate of change per unit change in MAP ([1]; 2 nmol/kg/min infusion) | Mean arterial pressure Peak response ([1]; 2.0 nmol/kg/min infusion) | Urine flow rate Peak Time ([1]; 2.0 nmol/kg/min infusion) [min] | Urine flow rate Peak response ([1]; 2.0 nmol/kg/min infusion) | NPR-A activation potency, Ratio compared ANP (rat NPR-A [2]) | fold drop in activity compared to ANP (rat NPR-A [2]) [fold] | NPR-A activation potency, Ratio compared wild type NPs (rat NPR-A [2]) | Rate of generation of cGMP, Ratio compared ANP (rat NPR-A [3]) | Rate of generation of cGMP, Ratio compared wild type NPs (rat NPR-A [3]) | times slower activation kinetics compared to the wild type (ANP) (rat NPR-A [3]) [times] | Rate of generation of cGMP (rat NPR-A [3]) [pmol cGMP/pmol peptide] | time of peak / maximum accumulation of cGMP (rat NPR-A [3]) [min] | other results |
| --- | --- | --- | --- | --- | --- | --- | --- | --- | --- | --- | --- | --- | --- | --- | --- | --- | --- | --- | --- |
| CC[C@H](C)[C@@H]1NC(=O)[C@H](CCCNC(=N)N)NC(=O)[C@H](CC(=O)O)NC(=O)[C@H](CCSC)NC(=O)[C@H](CCCNC(=N)N)NC(=O)CNC(=O)CNC(=O)[C@H](Cc2ccccc2)NC(=O)[C@@H](NC(=O)[C@H](CO)NC(=O)[C@H](CO)NC(=O)[C@H](CCCNC(=N)N)NC(=O)[C@H](CCCNC(=N)N)NC(=O)[C@H](CC(C)C)NC(=O)[C@@H](N)CO)CSSC[C@@H](C(=O)N[C@@H](CC(N)=O)C(=O)N[C@@H](CO)C(=O)N[C@@H](Cc2ccccc2)C(=O)N[C@@H](CCCNC(=N)N)C(=O)N[C@@H](Cc2ccc(O)cc2)C(=O)O)NC(=O)CNC(=O)[C@H](CC(C)C)NC(=O)CNC(=O)[C@H](CO)NC(=O)[C@H](CCC(N)=O)NC(=O)[C@H](C)NC(=O)CNC1=O [ANP, reference compound] | 30 | −10.1±0.8 mmHg and −10.1 ± 1.9 mmHg | 30 | 40 | 8.8 ± 1.3 |  |  |  |  |  |  |  |  |  |  |  |  |  | Heart rate Peak response ([1]; 0.08 nmol/kg/min infusion): −7.8 ± 2.4 BPM; Pulse pressure Peak response ([1]; 0.08 nmol/kg/min infusion): −2.1 ± 1.5 mmHg; Urine flow rate Peak Time ([1]; 0.08 nmol/kg/min infusion): 20 min; Urine flow rate Peak response ([1]; 0.08 nmol/kg/min infusion): 5.4 ± 1.4 µL/min; Mean arterial pressure Peak response ([1]; 0.08 nmol/kg/min infusion, anesthetized rats): −1.6 ± 1.5 mmHg; HR Rate of change per unit change in MAP ([1]; 0.2 nmol/kg/min infusion): 5.6; PP Rate of change per unit change in MAP ([1]; 0.2 nmol/kg/min infusion): 0.5; Pulse pressure Peak response ([1]; 0.2 nmol/kg/min infusion): −7.7±3.9 mmHg and −7.7±1.8 mmHg; Urine flow rate Peak Time ([1]; 0.2 nmol/kg/min infusion): 20 min |
| CC[C@H](C)[C@@H]1NC(=O)[C@H](CCCNC(=N)N)NC(=O)[C@H](CC(=O)O)NC(=O)[C@H](CCSC)NC(=O)[C@H](CCCNC(=N)N)NC(=O)CNC(=O)[C@H](CC(=O)O)NC(=O)[C@H](Cc2ccccc2)NC(=O)[C@@H](NC(=O)[C@H](CO)NC(=O)[C@H](CO)NC(=O)[C@H](CCCNC(=N)N)NC(=O)[C@H](CCCNC(=N)N)NC(=O)[C@H](CC(C)C)NC(=O)[C@@H](N)CO)CSSC[C@@H](C(=O)N[C@@H](CC(N)=O)C(=O)N[C@@H](CO)C(=O)N[C@@H](Cc2ccccc2)C(=O)N[C@@H](CCCNC(=N)N)C(=O)N[C@@H](Cc2ccc(O)cc2)C(=O)O)NC(=O)CNC(=O)[C@H](CC(C)C)NC(=O)[C@H](CC(=O)O)NC(=O)[C@H](CO)NC(=O)[C@H](CCC(N)=O)NC(=O)[C@H](C)NC(=O)CNC1=O [^DGDANP] (H-SLRRSSCFDGRMDRIGAQSDLGCNSFRY-OH; disulfide 7-23; N-terminus assumed) |  |  |  |  |  | 4.4 | 0.5 | −4.8±2.3 mmHg and −4.8 ± 2.9 mmHg | 30 | 7.9 ± 2.1 µL/min and 7.9 ± 2.0 µL/min | 7.8 | 8 | 7.8 | 56.9 | 56.9 | 7.8 | 0.14 | 10 | delay of the peak of diuresis ([1]; 2 nmol/kg/min infusion): 10 min |
| CC[C@H](C)[C@@H]1NC(=O)[C@H](CCCNC(=N)N)NC(=O)[C@H](CC(=O)O)NC(=O)[C@H](CCSC)NC(=O)[C@H](CCCNC(=N)N)NC(=O)[C@H](CCCNC(=N)N)NC(=O)[C@H](CC(=O)O)NC(=O)[C@H](Cc2ccccc2)NC(=O)[C@@H](NC(=O)[C@H](CO)NC(=O)[C@H](CO)NC(=O)[C@H](CCCNC(=N)N)NC(=O)[C@H](CCCNC(=N)N)NC(=O)[C@H](CC(C)C)NC(=O)[C@@H](N)CO)CSSC[C@@H](C(=O)N[C@@H](CC(N)=O)C(=O)N[C@@H](CO)C(=O)N[C@@H](Cc2ccccc2)C(=O)N[C@@H](CCCNC(=N)N)C(=O)N[C@@H](Cc2ccc(O)cc2)C(=O)O)NC(=O)CNC(=O)[C@H](CC(C)C)NC(=O)[C@H](CC(=O)O)NC(=O)[C@H](CO)NC(=O)[C@H](CCC(N)=O)NC(=O)[C@H](C)NC(=O)CNC1=O [^DRDANP] (H-SLRRSSCFDRRMDRIGAQSDLGCNSFRY-OH; disulfide 7-23; N-terminus assumed) | 30 | −12.9±1.5 mmHg | 30 | 20 | <2 | 4.5 | 0.5 | −18.3±2.3 mmHg | 20 | 18.7 ± 0.7 µL/min | 2.6 | 3 | 2.6 | 21.0 | 21.0 | 2.6 | 0.38 | 10 | Heart rate Peak response ([1]; 0.2 nmol/kg/min infusion): −37.5±9.5 BPM; diuresis ([1]; 0.2 nmol/kg/min infusion): failed to induce diuresis; Heart rate Peak response ([1]; 2.0 nmol/kg/min infusion): −66.6±14.6 BPM; Heart rate Peak time ([1]; 2.0 nmol/kg/min infusion): 30 min; Mean arterial pressure Peak time ([1]; 2.0 nmol/kg/min infusion): 30 min; Pulse pressure Peak response ([1]; 2.0 nmol/kg/min infusion): −7.9±1.8 mmHg; Pulse pressure Peak time ([1]; 2.0 nmol/kg/min infusion): 20 min; Heart rate Peak response [1, 4]: −66.6 ± 14.5 BPM; Mean arterial pressure Peak response [1, 4]: −18.4 ± 2.4 mmHg; Pulse pressure Peak response [1, 4]: −8.0 ± 1.8 mmHg; Urine flow rate Peak response [1, 4]: 18.8 ± 0.7 µL/min; diuresis compared to K-Ring^NSFRY [1, 5]: 2 fold; influence on HR compared to K-Ring^NSFRY [1, 5]: 2 fold |
